The supplement of paper PMC11003180

Legend:
Experiment in all cases: drug sensitivity score (DSS) from 5-dose viability curve (DSS (area-based score, 0 = no response)); higher = more sensitive (stronger viability inhibition); extreme values may be limits of the assay
[1] = system: MDCK wild-type - doxycycline; settings: doxycycline: none; 72 h
Summary of the method: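 Viability of parental MDCK cells cultured without doxycycline was measured by CellTiter-Glo luminescence and scaled per plate between vehicle and positive controls. The cells had been exposed for 72 h to an oncology library of 528 drugs at five doses (1-10,000 nM). Drug sensitivity scores were calculated from dose-response curve fits in the Breeze pipeline.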

[2] = system: MDCK p60AmotL2-inducible + doxycycline (p60AmotL2 expressing); settings: doxycycline: 10 ng/mL; 72 h
Summary of the method: (§1)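 Pre-spotted 384-well plates held 528 oncology drugs, each at five doses from 1 to 10,000 nM. Parental and doxycycline-inducible MDCK cells, exposed beforehand to 10 ng/mL doxycycline in the medium, were added at 2000 cells/well and incubated 72 h at 37 °C. Viability came from CellTiter-Glo luminescence normalized per plate to vehicle and positive controls, and the Breeze pipeline fitted dose-response curves to give drug sensitivity scores.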

[3] = system: MDCK wild-type + doxycycline; settings: doxycycline: 10 ng/mL; 72 h
Summary of the method: as §1

Row | SMILES | drug sensitivity score [1] | drug sensitivity score [2] | drug sensitivity score [3]
1 | COc1cc(Nc2ncc3c(n2)-c2ccc(Cl)cc2C(c2c(F)cccc2OC)=NC3)ccc1C(=O)O [Alisertib] | 0 | 10.6 | 0
2 | CCn1cc(-c2ccnc3[nH]c(-c4cccc(CN(C)C)c4)cc23)c(-c2ccc(NC(=O)N(C)C)cc2)n1 | 0.4 | 7.1 | 1.9
3 | C=C1C[C@@H]2CC[C@@]34C[C@H]5O[C@H]6[C@@H](O3)[C@H]3O[C@H](CC[C@@H]3O[C@H]6[C@H]5O4)CC(=O)C[C@@H]3[C@@H](OC)[C@@H](C[C@H](O)CN)O[C@H]3C[C@H]3O[C@@H](CC[C@@H]1O2)C[C@@H](C)C3=C [Eribulin] | 17.3 | 23.4 | 22.5
4 | CN(C)C1CCN(C(=O)c2ccc(NC(=O)Nc3ccc(-c4nc(N5CCOCC5)nc(N5CCOCC5)n4)cc3)cc2)CC1 [Gedatolisib] | 0 | 5.2 | 1.9
5 | CCN(CC)CCCC(C)Nc1c2ccc(Cl)cc2nc2ccc(OC)cc12 (stereo unspecified) [Mepacrine] | 10.5 | 15.2 | 16.2
6 | C[C@@H](Oc1ccc2[nH]nc(/C=C/c3cnn(CCO)c3)c2c1)c1c(Cl)cncc1Cl | 7.1 | 9.3 | 7.2
7 | Nc1nc(N)c2nc(-c3cccc(O)c3)c(-c3cccc(O)c3)nc2n1 [TG100-115] | 0 | 0 | 0
8 | COc1cc(OC)c(/C=C/S(=O)(=O)Cc2ccc(OC)c(NCC(=O)O)c2)c(OC)c1 [Rigosertib] | 24 | 26.8 | 26.5
9 | CC(C)(C)NC(=O)[C@H]1CC[C@H]2[C@@H]3CC[C@H]4NC(=O)C=C[C@]4(C)[C@H]3CC[C@]12C [Finasteride] | 0 | 0 | 0
10 | Cc1ccc(C(=O)N(CCCN)[C@@H](c2oc3cc(Cl)ccc3c(=O)c2Cc2ccccc2)C(C)C)cc1 | 15.3 | 8.8 | 5.8
11 | CN(C)Cc1ccc(S(=O)(=O)n2ccc(/C=C/C(=O)NO)c2)cc1 [Resminostat] | 5 | 10.4 | 8.8
12 | O=C(c1ccc(OCCN2CCCCC2)cc1)c1c(-c2ccc(O)cc2)sc2cc(O)ccc12 [Raloxifene] | 5.2 | 6.1 | 5.2
13 | Nc1nc2[nH]cnc2c(=S)[nH]1 [Thioguanine] | 1.1 | 1.5 | 3.8
14 | CO[C@H]1C[C@@H]2CC[C@@H](C)[C@@](O)(O2)C(=O)C(=O)N2CCCC[C@H]2C(=O)O[C@H]([C@H](C)C[C@@H]2CC[C@@H](OP(C)(C)=O)[C@H](OC)C2)CC(=O)[C@H](C)/C=C(\C)[C@@H](O)[C@@H](OC)C(=O)[C@H](C)C[C@H](C)/C=C/C=C/C=C/1C [Ridaforolimus] | 0 | 9.8 | 0.6
15 | Cc1cn(-c2cc(NC(=O)c3ccc(C)c(Nc4nccc(-c5cnccn5)n4)c3)cc(C(F)(F)F)c2)cn1 [Radotinib] | 0 | 0 | 0
16 | CON(C)C(=O)N1N=C(c2cc(F)ccc2F)S[C@@]1(CCCN)c1ccccc1 [Filanesib] | 29.1 | 27.5 | 28.7
17 | CC(C)N(C[C@H]1O[C@@H](n2cnc3c(N)ncnc32)[C@H](O)[C@@H]1O)[C@H]1C[C@@H](CCc2nc3cc(C(C)(C)C)ccc3[nH]2)C1 [Pinometostat] | 0 | 0 | 0
18 | COc1cc2c(cc1-c1c(C)noc1C)ncc1[nH]c(=O)n([C@H](C)c3ccccn3)c12 [I-BET151] | 0.6 | 10.9 | 4.6
19 | COc1cccc2c1C(=O)c1c(O)c3c(c(O)c1C2=O)C[C@@](O)(C(C)=O)C[C@@H]3O[C@H]1C[C@H](N)[C@H](O)[C@H](C)O1 [Daunorubicin] | 9.5 | 11.6 | 10.3
20 | O=C1CN2Cc3c(ccc(Cl)c3Cl)N=C2N1 [Anagrelide] | 0 | 0 | 0
21 | O=C(O)CC1CC(c2ccccc2)=NO1 (stereo unspecified) [VGX-1027] | 0 | 0 | 0
22 | COc1cc2c(N3CCN(C(=O)Nc4ccc(OC(C)C)cc4)CC3)ncnc2cc1OCCCN1CCCCC1 [Tandutinib] | 0 | 0 | 0
